In patent publication US11629179B2, “TWEAK-receptor agonists for use in combination with immunotherapy of a cancer” (Stichting Het Nederlands Kanker Instituut - Antoni van …, priority 2018, dated 2023):

Assays:
[1] = system: D10; assay: NSG murine xenograft of D10 cells with adoptive cell transfer; format: in vivo, mouse; conditions: anti-TNF antibody injected (FIG. 4C, D)
Procedure: (§1) For xenograft studies, 1×10^6 D10 or BLM tumor cells were admixed with Matrigel (Corning) and injected subcutaneously into NSG-β2M^null mice (The Jackson Laboratory). Growth was monitored three times per week with calipers, and tumor size was calculated using the following formula: ½×length (mm)×width (mm). When tumors reached indicated sizes, mice were randomized over different treatment groups in a blinded fashion and were administered 5×10^6 human CD8 T cells, intravenously in the tail vein. In vivo persistence of T cells was stimulated by administering 100.000 U IL-2 (Proleukin, Novartis) intraperitoneally daily for three consecutive days. In selected experiments, birinapant (MedChem Express) was administered intraperitoneally once every three days. Birinipant was formulated at 3 mg/ml in 12.5% captisol (CyDex Pharmaceuticals) in water adjusted to pH 4 with hydrochloric acid. […] In selected experiments, the PD-1-blocking antibody nivolumab (Slotervaart Hospital) was given once weekly (5 mg/kg). For studies in immunocompetent mice, 3×10^5 D4M.3A cells were injected subcutaneously into C57BI/6J mice (Janvier) and tumor growth was monitored three times per week with calipers.

[2] = system: D10 melanoma cells; assay: T cell cytotoxicity assay with MART-1 T cells; format: cell-based, human
Procedure: (§2) 1.2×10^5 tumor cells were seeded per well in 12-well culture plates (Greiner). CD8 T cells were admixed in serial dilutions (two-fold, starting at a 1:1 ratio). After 24 hours, T cells were washed away. After a further 4 days, plates were fixed and stained for 1 hour using a crystal violet solution containing 0.1% crystal violet (Sigma) and 50% methanol (Honeywell). For quantification, remaining crystal violet was solubilized in 10% acetic acid (Sigma). Absorbance of this solution was measured on an Infinite 200 Pro spectrophotometer (Tecan) at 595 nm. In select experiments, tumor viability data was assessed with CellTiter-Blue (Promega) following manufacturer's instructions. In indicated experiments, 1 uM of birinapant (Selleck Chemicals) in DMSO (Sigma) was added during co-cultures. For Incucyte (Incucyte Zoom, Essen Bioscience) experiments, 5×10^3 tumor cells were seeded per well in 96-well culture plates (Greiner). CD8 T cells were admixed in indicated ratios and a Caspase-3/7 dye (Essen Bioscience) was added. Growth of these co-cultures was followed for 48 hours. […] In indicated experiments, enavatuzumab (indicated concentrations; Creative Biolabs) in the presence or absence of protein G (50 μg/mL; Thermo Fisher Scientific) was added. To cluster enavatuzumab, cells were pretreated for 1 hour with enavatuzumab, then protein G was added for a further 7 hours. Then, CD8 T cells were added to the tumor cells for a further 16 hours.

[3] = system: panel of 11 human melanoma and lung cancer cell lines; assay: MART-1 T cell cytotoxicity assay in a panel of tumor cell lines; format: cell-based
Procedure: as §2, with “Then, CD8 T cells were added to the tumor cells for a further 16 hours.” left out

[4] = system: SK-MEL-23; assay: Caspase-3/7 dye tumor cell apoptosis after MART-1 T cell attack, SK-MEL-23; format: cell-based, human; conditions: combined with TRAF2 inactivation; neutralizing TNF antibody (FIG. 6B)
Procedure: as §2, with “Then, CD8 T cells were added to the tumor cells for a further 16 hours.” left out

[5] = system: BLM; assay: T cell cytotoxicity assay of BLM clones; format: cell-based, human; conditions: wildtype and TRAF2-deficient BLM clones in vitro (FIG. 11F)
Procedure: as §2, with “Then, CD8 T cells were added to the tumor cells for a further 16 hours.” left out

[6] = system: BLM; assay: NSG murine xenograft of BLM clones with ACT of MART-1 T cells; format: in vivo, mouse
Procedure: as §1, with “days.” for “days. Birinipant was formulated at 3 mg/ml in 12.5% captisol (CyDex Pharmaceuticals) in water adjusted to pH 4 with hydrochloric acid.”
(§3) To prepare lysates, snapfrozen tumor piecesd were weighed and lysed in RIPA buffer (50 mM TRIS pH 8.0, 150 mM NaCl, 1% Nonidet P40, 0.5% sodium deoxycholate, 0.1% SDS) supplemented with complete protease inhibitor cocktail (Roche Applied Science) and phosphatase inhibitors 10 mM NaF, 1 mM Na3VO4, 1 mM sodium pyrophosphate and 10 mM beta-glycerophosphate. Protein concentration was determined using a Bradford Protein Assay (Biorad).

[7] = system: cIAP1/2; conditions: Benetatos et al., 2014; FIG. 11C; cited from earlier work
[8] = system: TRAF2; assay: Western blot analysis of TRAF2 in treated D10 melanoma cells; format: cell-based, human
Procedure: 1.2×10^5 tumor cells were seeded per well in 12-well culture plates (Greiner). CD8 T cells were admixed in serial dilutions (two-fold, starting at a 1:1 ratio). After 24 hours, T cells were washed away. After a further 4 days, plates were fixed and stained for 1 hour using a crystal violet solution containing 0.1% crystal violet (Sigma) and 50% methanol (Honeywell). For quantification, remaining crystal violet was solubilized in 10% acetic acid (Sigma). Absorbance of this solution was measured on an Infinite 200 Pro spectrophotometer (Tecan) at 595 nm. In select experiments, tumor viability data was assessed with CellTiter-Blue (Promega) following manufacturer's instructions. In indicated experiments, 1 uM of birinapant (Selleck Chemicals) in DMSO (Sigma) was added during co-cultures. […]
as §3, with “Cells” for “To prepare lysates, snapfrozen tumor piecesd”, “were” for “were weighed and”, “(Biorad). […] Western blots were then incubated in SuperSignal West Dura Extended Duration Substrate (Thermo Scientific) and luminescence was captured on high performance autoradiography films (Amersham). […]” for “(Biorad).”

[9] = system: panel of 38 human tumor cell lines; conditions: cited from earlier work

infliximab: TNF blocking antibody
tumor control of TRAF2-deficient tumors after ACT with MART-1 T cells [1]: this tumor control was dependent on TNF

CC[C@H](NC(=O)[C@H](C)NC)C(=O)N1C[C@@H](O)C[C@H]1Cc1c(-c2[nH]c3cc(F)ccc3c2C[C@@H]2C[C@H](O)CN2C(=O)[C@H](CC)NC(=O)[C@H](C)NC)[nH]c2cc(F)ccc12 [birinapant, (2S)—N-[(2S)-1-[(2R,4S)-2-[[6-fluoro-2-[6-fluoro-3-[[(2R,4S)-4-hydroxy-1-[(2S)-2-[[(2S) (methylamino)propanoyl]amino]butanoyl]pyrrolidin-2-yl]methyl]-1H-indol-2-yl]-1H-indolyl]methyl]-4-hydroxypyrrolidin-1-yl]-1-oxobutan-2-yl]-2-(methylamino)propanamide]
sensitivity to T cell killing in combination with TRAF2 inactivation ([2]; D10 cells sgCtrl or sgTRAF2, with or without birinapant (FIG. 11D)): synergized with TRAF2 inactivation in inducing sensitivity to T cell killing
tumor cell survival, sgTRAF2+DMSO vs. sgTRAF2+Bir ([3]; MART-1 T cell cytotoxicity assay, p<0.001 (FIG. 6A)): significant for all cell lines
sensitivity to T cell killing in combination with TRAF2 deletion ([3]; all tested tumor cell lines (FIG. 6A)): strong synergy between TRAF2 deletion and pharmaceutical targeting of cIAP1/2 in all tested tumor cell lines
sensitivity to T cell-derived TNF [4]: induced a de novo sensitivity to T cell-derived TNF in SK-MEL-23
response to T cells, TRAF2 deletion plus cIAP1/2 inhibition [5]: synergistic response
tumor control ([6]; TRAF2 KO tumors treated with birinapant (FIG. 6E)): better tumor control when compared to control tumors
tumor volume and survival ([6]; TRAF2 genetic inactivation plus birinapant, ACT with MART-1 T cells (FIG. 6D)): induced both a reduction in tumor volume and extended survival
degradation of BIRC2/3 protein products (cIAP1/2) [7]: known to degrade both BIRC2/3 protein products

anti-PD-1: PD-1-blocking antibody nivolumab given once weekly (5 mg/kg)
tumor control and overall survival ([6]; anti-PD-1 added to TRAF2 KO plus birinapant (FIG. 6E)): superior tumor control, improving overall survival
rejection of tumors ([6]; anti-PD-1 alone, wildtype BLM tumors (FIG. 6E)): failed to affect rejection of VVT tumors
intratumoral TNF after ICB ([6]; non-responding setting (FIG. 11I)): failed to see an upregulation of TNF after ICB

B1: TWEAK: ligand of Fn14 (TNF-like weak inducer of apoptosis); recombinant TWEAK (Peprotech) (protein)
chain: SAPKGRKTRARRAIAAHYEVHPRPGQDGAQAGVDGTVSGWEEARINSSSPLRYNRQIGEFIVTRAGLYYLYCQVHFDEGKAVYLKLDLLVDGVLALRCLEEFSATAASSLGPQLRLCQVSGLLALRPGSSLRIRTLPWAHLKAAPFLTYFGLFQVH
degradation of TRAF2 ([8]; D10 melanoma cells treated 8 hours with recombinant human TWEAK (FIG. 3G)): led to the degradation of TRAF2
sensitization of tumor cells to T cell killing ([2]; 250 ng/mL TWEAK during exposure to MART-1 T cells (FIG. 3H)): sensitized tumor cells to T cell killing

B2: enavatuzumab: agonistic anti-Fn14 antibody (Creative Biolabs) (antibody, chains of the INN, looked up, V domains shown)
VH: EVQLVESGGGLVQPGGSLRLSCAASGFTFSSYWMSWVRQAPGKGLEWVAEIRLKSDNYATHYAESVKGRFTISRDDSKNSLYLQMNSLRAEDTAVYYCTGYYADAMDYWGQGTLVTVSS
VL: DIQMTQSPSSLSASVGDRVTITCRASQSVSTSSYSYMHWYQQKPGKAPKLLIKYASNLESGVPSRFSGSGSGTDFTLTISSLQPEDFATYYCQHSWEIPYTFGGGTKVEIK
degradation of TRAF2 ([8]; D10 melanoma cells treated 8 hours, presence or absence of protein G (FIG. 3I)): caused degradation of TRAF2, but only upon receptor clustering by the addition of protein G
sensitivity to T cell cytotoxicity ([2]; clustered with protein G, D10 and SK-MEL-147, 1:8 T cell:tumor cell ratio (FIG. 3J, 9C)): induced sensitivity to T cell cytotoxicity in two melanoma cell lines
dependence of sensitization on T cell-derived TNF ([2]; neutralization with anti-TNF antibody (FIG. 9D)): dependent on T cell-derived TNF
dependence of sensitization on TRAF2 ([2]; wildtype or TRAF2-deficient tumor cells (FIG. 3J)): sensitization by enavatuzumab was dependent on TRAF2

B3: Fn14 agonistic antibody: humanized anti-Fn14 agonistic antibody described by Michaelson et al. (2011) (antibody, chains of the INN, looked up, V domains shown)
VH: B2 VH
VL: B2 VL
cell lines with growth inhibition [9]: approximately 50%
